Results from PubChem BioAssay (NCI).
Several values for one entry are separate records, joined by “and”; a condition that tells them apart may be missing. Equal values may be shown once.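 Values below derive from 48-hour exposures of cells grown in 96-well plates, with endpoints linearly interpolated between the two concentrations bracketing the appropriate inhibition level. Here, GI50 denotes the concentration required for 50% inhibition of growth. TGI is the concentration that stops growth completely.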

Tests used:
Test in all cases: DTP human tumour cell line panel, 48 h
COLO 205 colon = test system: COLO 205 colon
SW-620 colon = test system: SW-620 colon
RPMI-8226 leukemia = test system: RPMI-8226 leukemia
UACC-62 melanoma = test system: UACC-62 melanoma
ACHN renal = test system: ACHN renal
HCT-116 colon = test system: HCT-116 colon
EKVX NSCLC = test system: EKVX NSCLC
HCC-2998 colon = test system: HCC-2998 colon
HCT-15 colon = test system: HCT-15 colon
K-562 leukemia = test system: K-562 leukemia
SK-MEL-2 melanoma = test system: SK-MEL-2 melanoma
A498 renal = test system: A498 renal

Structure (SMILES)	TGI (COLO 205 colon) [µM]	TGI (SW-620 colon) [µM]	TGI (RPMI-8226 leukemia) [µM]	TGI (UACC-62 melanoma)	TGI (ACHN renal)	TGI (HCT-116 colon)	TGI (EKVX NSCLC)	TGI (HCC-2998 colon) [µM]	TGI (HCT-15 colon)	TGI (K-562 leukemia) [µM]	TGI (SK-MEL-2 melanoma)	TGI (A498 renal)	GI50 (COLO 205 colon) [µM]	GI50 (SW-620 colon) [µM]	GI50 (RPMI-8226 leukemia) [µM]	GI50 (UACC-62 melanoma) [µM]	GI50 (ACHN renal) [µM]	GI50 (HCT-116 colon) [µM]	GI50 (A498 renal) [µM]	GI50 (K-562 leukemia) [µM]
NC(CCOCCP(=O)(O)CCOCCC(N)C(=O)O)C(=O)O (stereo unspecified)	> 100	> 100	> 100	> 100 µM	> 100 µM	> 100 µM	> 100 µM	> 100	> 100 µM	> 100	> 100 µM	–	–	–	–	–	–	–	–	–
NC(Cc1ccccc1)(C(=O)O)C(=O)O	> 100	> 100	> 100	> 100 µM	> 100 µM	> 100 µM	> 100 µM	> 100	> 100 µM	> 100	> 100 µM	> 100 µM	–	–	–	–	–	–	–	–
CC(C)C1OC(/C=C/c2ccccc2)OCC1(C)C (stereo unspecified)	31.2	> 100	47	> 100 µM	> 100 µM	92 µM	82.3 µM	38.5	> 100 µM	> 100	37.5 µM	63.7 µM	–	–	–	–	–	–	–	–
O=C1OCc2cccc3c2-c2c1cccc2C(=O)OC3	> 100	–	> 100	> 100 µM	–	> 100 µM	> 100 µM	> 100	> 100 µM	> 100	> 100 µM	–	–	–	–	–	–	–	–	–
N=C(N)SCc1cccc2c(=O)cc(-c3ccccc3)oc12	27.3	> 39.3	18.4	32.4 µM	15.5 µM	19.7 µM	37.9 µM	27.1	> 65.7 µM	> 42.2	25.2 µM	35.8 µM	–	–	–	–	–	–	–	–
C/C(=C\c1ccc(Cl)c(Cl)c1)[N+](=O)[O-]	3.27	–	3.17	3.51 µM and 4.8 µM	3.6 µM and 3.82 µM	2.85 µM and 10.2 µM	3.9 µM and 4.58 µM	8.25	4.13 µM and 3.18 µM	–	4.05 µM and 4.03 µM	21.5 µM and 14.8 µM	1.78	1.33	0.538	1.74	1.77	1.37	8.21	0.731
COc1cccc(CC2Cc3ccccc3CC(=O)N2)c1 (stereo unspecified)	> 100	> 100	> 100	> 100 µM	> 100 µM	> 100 µM	> 100 µM	> 100	–	> 100	> 100 µM	–	–	–	–	–	–	–	–	–
O=C1/C(=C/c2ccc(Cl)cc2)N=C(c2ccccc2)N1c1ccc(S(=O)(=O)Nc2nccs2)cc1	40.7	> 100	49.5	53.1 µM	> 100 µM	> 100 µM	> 100 µM	47.4	> 100 µM	> 100	47.3 µM	> 100 µM	–	–	–	–	–	–	–	–
COc1ccc(Cc2nccc3cc(OC)c(OC)cc23)cc1OC	> 100	> 100	> 100	> 100 µM	> 100 µM	> 100 µM	> 100 µM	> 100	> 100 µM	> 100	> 100 µM	> 100 µM	–	–	–	–	–	–	–	–
O=C(O)c1oc(C(=O)O)c(C(=O)O)c1C(=O)O	–	> 100	> 100	> 100 µM	> 100 µM	> 100 µM	> 100 µM	–	> 100 µM	> 100	> 100 µM	> 100 µM	–	–	–	–	–	–	–	–
CCCCC(=O)Oc1ccc2c(C)cc(=O)oc2c1	> 100	> 100	> 100	> 100 µM	> 100 µM	> 100 µM	> 100 µM	> 100	–	> 100	> 100 µM	> 100 µM	–	–	–	–	–	–	–	–
c1ccc(-c2nnc(-c3nsc4ccccc34)o2)cc1	> 100	> 100	> 100	> 100 µM	–	> 100 µM	> 100 µM	> 100	> 100 µM	> 100	> 100 µM	–	–	–	–	–	–	–	–	–
O=C(O)C12CCCC(CCC1)C2	> 100	> 100	> 100	> 100 µM	> 100 µM	> 100 µM	> 100 µM	–	> 100 µM	> 100	> 100 µM	> 100 µM	–	–	–	–	–	–	–	–
CCOC(=O)C1=C(C)N(NC(N)=O)C2(O)CCCC(=O)C12C (stereo unspecified)	> 100	> 100	> 100	> 100 µM	> 100 µM	–	–	> 100	> 100 µM	–	> 100 µM	> 100 µM	–	–	–	–	–	–	–	–
CCCCS(=O)(=O)Nc1ccc(Nc2c3ccccc3nc3ccccc23)c(OC)c1	20.2	14.2	> 21.4	7.48 µM	–	8.11 µM	14.4 µM	16.7	9.11 µM	16.5	30.9 µM	9.85 µM	–	–	–	–	–	–	–	–
c1ccc(C[n+]2cccc(-c3cc4ccccc4[nH]3)c2)cc1	28.8	> 100	41.2	32.1 µM	> 100 µM	> 100 µM	> 100 µM	–	> 100 µM	77.8	32.8 µM	> 100 µM	–	–	–	–	–	–	–	–
